From US20080318949A1, “Pyrazolopyrimidinone Derivatives, Their Preparation And Their Use” (Topharman Shanghai Co., Ltd, priority 2005, published 2008)

Biological target: T1, PDE5 from human platelets (Homo sapiens, UniProt O76074)
T1 construct: from tissue; host or cells: human platelets
Assay: PDE5 inhibitory activity test (scintillation proximity assay)
Format: biochemical
Conditions: PDE5 from human platelets
Excerpt: The PDE5 and PDE3 were isolated form human platelets, while the PDE6 was isolated form bovine retinas. The enzyme inhibitory activity test conducted immediately after the enzymes had been isolated, using a scintillation proximity assay for the direct detection of AMP/GMP by the TRKQ7100 and TRKQ7090 kit. In summary, the effect of PDE inhibitors was investigated by assaying a fixed amount of enzyme in the presence of varying inhibitor concentrations and low substrate. The final assay volume was made up to 100 μl with 10 μl assay buffer (50 mM Tris/HCl PH 7.5, 8.3 mM MgCl2, 1.7 mM EGTA), and water. Reactions were initiated with enzyme, incubate for 30 minutes at 30° C. and terminated with 50 μl yttrium silicate SPA beads suspension containing zinc sulphate. Shook for 20 minutes and settled for 30 minutes in the dark, then counted on a BECKMAN LS6500 MULTI-PURPOSE SCINTILLATION COUNTER. The IC50 value for the compounds according the present invention was calculated according the counts.
According to the above-mentioned method, the inhibitory activities of some compounds of formula IA and IB according to the invention against PDE5 from human platelets were determined.

Molecule | IC50 [nM]
1-methyl-5-{2-ethoxy-5-{[1-methyl-1-[2-[1-methyl-1-(2-hydroxyethyl)]amino]ethyl]amidosulfonyl}phenyl}-3-n-propyl-1,6-dihydro-7H-pyrazolo[4,3-d]pyrimidin-7-one [Example 21] | 0.928
1-methyl-5-{2-propoxy-5-[[1-(2-hydroxyethoxyethyl)-1-(2-morpholin-1-yl)ethyl]amidosulfonyl]phenyl}-3-n-propyl-1,6-dihydro-7H-pyrazolo[4,3-d]pyrimidin-7-one [Example 104] | 13.1
CCCc1nn(C)c2c(=O)[nH]c(-c3cc(S(=O)(=O)N(CCOC(C)=O)CCN(CC)CC)ccc3OCC)nc12 [Example 12, 1-methyl-5-{2-ethoxy-5-[[1-(2-diethylaminoethyl)-1-(2-acetoxyethyl)]amidosulfonyl]phenyl}-3-n-propyl-1,6-dihydro-7H-pyrazolo[4,3-d]pyrimidin-7-one] | 6.98
CCOc1ccc(S(=O)(=O)N(CCOC(C)=O)CCOC(C)=O)cc1-c1nc2c(CC)nn(C)c2c(=O)[nH]1 [Example 6, 1-methyl-5-{2-ethoxy-5-[bis(2-acetoxyethyl)amidosulfonyl]phenyl}-3-ethyl-1,6-dihydro-7H-pyrazolo[4,3-d]pyrimidin-7-one] | 0.74
1-methyl-5-{2-propoxy-5-[[1-(3-ethoxyethyl)-1-(2-hydroxyethyl)]amidosulfonyl]phenyl}-3-n-propyl-1,6-dihydro-7H-pyrazolo[4,3-d]pyrimidin-7-one [Example 116] | 11.2
1-methyl-5-{2-propoxy-5-[[1-ethyl-1-(2-acetoxyethyl)]amidosulfonyl]phenyl}-3-n-propyl-1,6-dihydro-7H-pyrazolo[4,3-d]pyrimidin-7-one [Example 94] | 5.41
1-methyl-5-{2-ethoxy-5-[bis(3-acetoxypropyl)amidosulfonyl]phenyl}-3-n-propyl-1,6-dihydro-7H-pyrazolo[4,3-d]pyrimidin-7-one [Example 108] | 17.4
CCOc1ccc(S(=O)(=O)N(CC)CCN(CC)CCOC(C)=O)cc1-c1nc2c(CC)nn(CC)c2c(=O)[nH]1 [Example 19, 1-ethyl-5-{2-ethoxy-5-{[1-ethyl-1-[2-[1-ethyl-1-(2-acetoxyethyl)]amino]ethyl]amidosulfonyl}phenyl}-3-n-propyl-1,6-dihydro-7H-pyrazolo[4,3-d]pyrimidin-7-one] | 4.29
1-methyl-5-{2-ethoxy-5-{[1-ethyl-1-[2-[1-ethyl-1-(2-hydroxyethoxyethyl)]amino]ethyl]amidosulfonyl}phenyl}-3-n-propyl-1,6-dihydro-7H-pyrazolo[4,3-d]pyrimidin-7-one [Example 20] | 0.505
CCCc1nn(C)c2c(=O)[nH]c(-c3cc(S(=O)(=O)N(CCOCCOC(C)=O)CCN(CC)CC)ccc3OCC)nc12 [Example 15, 1-methyl-5-{2-ethoxy-5-[1-(2-diethylaminoethyl)-1-(2-acetoxyethoxyethyl)amidosulfonyl]phenyl}-3-n-propyl-1,6-dihydro-7H-pyrazolo[4,3-d]pyrimidin-7-one] | 10.6
CCCc1nn(C)c2c(=O)[nH]c(-c3cc(S(=O)(=O)N(CCOC(C)=O)CCOC(C)=O)ccc3OCCOC)nc12 [Example 9, 1-methyl-5-{2-methoxyethoxy-5-[bis(2-acetoxyethyl)amidosulfonyl]phenyl}-3-n-propyl-1,6-dihydro-7H-pyrazolo[4,3-d]pyrimidin-7-one] | 16.9
CCOc1ccc(S(=O)(=O)N(CCOC(=O)c2cccnc2)CCOC(=O)c2cccnc2)cc1-c1nc2c(CC)nn(C)c2c(=O)[nH]1 [Example 7, 1-methyl-5-{2-ethoxy-5-[bis(2-nicotinoyloxyethyl)amidosulfonyl]phenyl}-3-ethyl-1,6-dihydro-7H-pyrazolo[4,3-d]pyrimidin-7-one] | 0.5
1-methyl-5-{2-propoxy-5-[[1-benzyl-1-(2-pyrrolidin-1-yl)ethyl]amidosulfonyl]phenyl}-3-n-propyl-1,6-dihydro-7H-pyrazolo[4,3-d]pyrimidin-7-one [Example 84] | 11.7
1-methyl-5-{2-propoxy-5-[[1-(2-pyridylmethyl)-1-(2-piperidin-1-yl)ethyl]amidosulfonyl]phenyl}-3-n-propyl-1,6-dihydro-7H-pyrazolo[4,3-d]pyrimidin-7-one [Example 87] | 8.77

Other lines, results leading:

IC50 [nM] | Molecule
38.1 | CCCc1nn(C)c2c(=O)[nH]c(-c3cc(S(=O)(=O)N(CCOC)CCN(CC)CC)ccc3OCC)nc12 [Example 11, 1-methyl-5-{2-ethoxy-5-[[1-(2-diethylaminoethyl)-1-(2-methoxyethyl)]amidosulfonyl]phenyl}-3-n-propyl-1,6-dihydro-7H-pyrazolo[4,3-d]pyrimidin-7-one]
7.37 | CCCc1nn(C)c2c(=O)[nH]c(-c3cc(S(=O)(=O)N(CCO)CCN(CC)CC)ccc3OCC)nc12 [Example 13, 1-methyl-5-{2-ethoxy-5-[1-(2-diethylaminoethyl)-1-(2-hydroxyethyl)amidosulfonyl]phenyl}-3-n-propyl-1,6-dihydro-7H-pyrazolo[4,3-d]pyrimidin-7-one]
10.5 | CCCOc1ccc(S(=O)(=O)N(CC)CCN2CCOCC2)cc1-c1nc2c(CCC)nn(C)c2c(=O)[nH]1 [Example 41, 1-methyl-5-{2-propoxy-5-[[1-ethyl-1-(2-morpholin-1-yl)ethyl]amidosulfonyl]phenyl}-3-propyl-1,6-dihydro-7H-pyrazolo[4,3-d]pyrimidin-7-one]
6.32 | CCCc1nn(C)c2c(=O)[nH]c(-c3cc(S(=O)(=O)N(CC)CCN(CC)CCO)ccc3OCC)nc12 [Example 18]
0.31 | CCCc1nn(C)c2c(=O)[nH]c(-c3cc(S(=O)(=O)N(CCO)CCN4CCCCC4)ccc3OCC)nc12 [Example 29, 1-methyl-5-{2-ethoxy-5-[[1-(2-hydroxyethyl)-1-(2-piperidin-1-yl)ethyl]amidosulfonyl]phenyl}-3-n-propyl-1,6-dihydro-7H-pyrazolo[4,3-d]pyrimidin-7-one]
0.456 | CCOc1ccc(S(=O)(=O)N(CCN2CCOCC2)Cc2ccccc2)cc1-c1nc2c(CC)nn(C)c2c(=O)[nH]1 [Example 27, 1-methyl-5-{2-ethoxy-5-[[1-benzyl-1-(2-morpholin-1-yl)ethyl]amidosulfonyl]phenyl}-3-ethyl-1,6-diydro-7H-pyrazolo[4,3-d]pyrimidin-7-one]
13.4 | CCCc1nn(C)c2c(=O)[nH]c(-c3cc(S(=O)(=O)N(CCOCCO)CCN(CC)CC)ccc3OCC)nc12 [Example 16, 1-methyl-5-{2-ethoxy-5-[1-(2-diethylaminoethyl)-1-(2-hydroxyethoxyethyl)amidosulfonyl]phenyl}-3-n-propyl-1,6-dihydro-7H-pyrazolo[4,3-d]pyrimidin-7-one]
0.294 | CCCc1nn(C)c2c(=O)[nH]c(-c3cc(S(=O)(=O)N(C)CCN(C)CCOCCOCCOCc4ccccc4)ccc3OCC)nc12 [Example 22, 1-methyl-5-{2-ethoxy-5-{[1-methyl-1-[2-[1-methyl-1-(2-benzyloxyethoxyethoxyethyl)]amino]ethyl]amidosulfonyl}phenyl}-3-n-propyl-1,6-dihydro-7H-pyrazolo[4,3-d]pyrimidin-7-one]
2.14 | CCOc1ccc(S(=O)(=O)N(CCO)CCO)cc1-c1nc2c(CC)nn(C)c2c(=O)[nH]1 [Example 8]
0.072 | CCCOc1ccc(S(=O)(=O)N(C)CCN(C)CCO)cc1-c1nc2c(CCC)nn(C)c2c(=O)[nH]1 [Example 23, 1-methyl-5-{2-propoxy-5-{[1-methyl-1-[2-[1-methyl-1-(2-hydroxyethyl)]amino]ethyl]amidosulfonyl}phenyl}-3-n-propyl-1,6-dihydro-7H-pyrazolo[4,3-d]pyrimidin-7-one]
0.681 | CCCc1nn(C)c2c(=O)[nH]c(-c3cc(S(=O)(=O)N(CCOCCO)CCN4CCOCC4)ccc3OCC)nc12 [Example 28, 1-methyl-5-{2-ethoxy-5-[[1-(2-hydroxyethoxyethyl)-1-(2-morpholin-1-yl)ethyl]amidosulfonyl]phenyl}-3-n-propyl-1,6-dihydro-7H-pyrazolo[4,3-d]pyrimidin-7-one]
24.9 | CCCc1nn(C)c2c(=O)[nH]c(-c3cc(S(=O)(=O)N(CCN4CCOCC4)Cc4ccccc4)ccc3OC)nc12 [Example 26, 1-methyl-5-{2-methoxy-5-[[1-benzyl-1-(2-morpholin-1-yl)ethyl]amidosulfonyl]phenyl}-3-n-propyl-1,6-dihydro-7H-pyrazolo[4,3-d]pyrimidin-7-one]
8.55 | CCCc1nn(C)c2c(=O)[nH]c(-c3cc(S(=O)(=O)N(CC)CCN(CC)CCOC(C)=O)ccc3OCC)nc12 [Example 17]
22.2 | 1-methyl-5-{2-methoxyethoxy-5-[bis(2-hydroxyethyl)amidosulfonyl]phenyl}-3-n-propyl-1,6-dihydro-7H-pyrazolo[4,3-d]pyrimidin-7-one [Example 10]
4.9 | CCCOc1ccc(S(=O)(=O)N(CCCO)CCCO)cc1-c1nc2c(CCC)nn(C)c2c(=O)[nH]1 [Example 37]
0.862 | CCCOc1ccc(S(=O)(=O)N(CCO)CCN(CC)CC)cc1-c1nc2c(CCC)nn(C)c2c(=O)[nH]1 [Example 14, 1-methyl-5-{2-propoxy-5-[1-(2-diethylaminoethyl)-1-(2-hydroxyethyl)amidosulfonyl]phenyl}-3-n-propyl-l,6-dihydro-7H-pyrazolo[4,3-d]pyrimidin-7-one]
